Assay results reported in patent publication EP1082319B1, “BENZOCARBAZOLE AND INDENOINDOLE DERIVED ESTROGENIC AGENTS” (Wyeth, priority 1998, dated 1999).

What was measured:
estrogen receptor = molecular target: T1, estrogen receptor (Homo sapiens, UniProt P03372); test: In vitro estrogen receptor binding assay (competition with [3H]-17β-estradiol, cytosol of CHO cells overexpressing the receptor); conditions: for IC50: read-out: Receptor Binding IC50's; for binding to the ER receptor, comparison in words: compared with the indenoindole Example 4, from Table 2
T1 construct: expressed in transfected cells; host or cells: CHO cells (ribosome-free cytosol)
T1 sequence (P03372 1-595): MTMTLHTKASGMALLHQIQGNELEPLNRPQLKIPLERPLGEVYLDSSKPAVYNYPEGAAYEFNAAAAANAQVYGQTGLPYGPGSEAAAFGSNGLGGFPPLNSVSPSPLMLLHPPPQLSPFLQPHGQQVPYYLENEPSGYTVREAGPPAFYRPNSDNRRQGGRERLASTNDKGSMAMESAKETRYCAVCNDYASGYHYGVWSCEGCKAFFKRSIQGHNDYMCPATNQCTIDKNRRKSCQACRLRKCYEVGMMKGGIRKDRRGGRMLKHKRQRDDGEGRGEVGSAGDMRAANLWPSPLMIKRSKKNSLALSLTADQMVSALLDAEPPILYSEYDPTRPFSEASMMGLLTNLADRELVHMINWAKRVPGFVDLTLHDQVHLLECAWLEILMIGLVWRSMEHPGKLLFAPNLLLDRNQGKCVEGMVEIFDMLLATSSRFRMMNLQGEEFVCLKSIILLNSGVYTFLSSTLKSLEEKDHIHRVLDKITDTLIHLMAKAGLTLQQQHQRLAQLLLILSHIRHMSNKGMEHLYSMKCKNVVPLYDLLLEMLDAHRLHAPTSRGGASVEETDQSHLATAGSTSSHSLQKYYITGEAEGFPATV
Method: The plates were washed twice with PBS and once with 10 mM Tris-HCl, pH 7.4, 1 mM EDTA. Cells were harvested by scraping the surface and then the cell suspension was placed on ice. Cells were disrupted with a hand-held motorized tissue grinder using two, 10-second bursts. The crude preparation was centrifuged at 12,000g for 20 minutes followed by a 60 minute spin at 100,000g to produce a ribosome free cytosol. The cytosol was then frozen and stored at -80°C. Protein concentration of the cytosol was estimated using the BCA assay with reference standard protein. […] The plate was incubated at room temperature for 2.5 h. At the end of this incubation period 150 uL of ice-cold dextran coated charcoal (5% activated charcoal coated with 0.05% […] dextran) was added to each well and the plate was immediately centrifuged at 99g for 5 minutes at 4°C. 200 uL of the supernatant solution was then removed for scintillation counting. […] Also, wells containing radioactivity but no cytosol were processed with charcoal to estimate unremovable DPM of [^3H] 17β-estradiol. Counts per minute (CPM) of radioactivity were automatically converted to disintegrated per minute (DPM) by the Beckman LS 7500 Scintillation Counter using a set of quenched standards to generate a H# for each sample. […]

human estrogen receptor = molecular target: T2, human estrogen receptor (Homo sapiens, UniProt P03372); test: 2X VIT ERE infection luciferase assay in CHO cells stably transfected with the human estrogen receptor; assay type: cell-based; conditions: for Infection Luciferase Activity, 1 uM + 17β estradiol: 1 uM compound + 1 nM 17β-estradiol, 24 h (tests for estrogen antagonism), percentage of activity as compared to 17β-estradiol; for Infection Luciferase Activity, 1 uM: 1 uM compound alone, 24 h, percentage of activity as compared to 17β-estradiol (agonism)
T2 construct: expressed in transfected cells
Method: Chinese Hamster Ovary cells (CHO) which had been stably transfected with the human estrogen receptor were maintained in DMEM + 10% fetal bovine serum (FBS). 48h prior to treatment the growth medium was replaced with DMEM lacking phenol red + 10% dextran coated charcoal stripped FBS (treatment medium). Cells were plated at a density of 5000 cells/well in 96-well plates containing 200 µL of medium/well.
Reporter DNA (Promega plasmid pGL2 containing two tandem copies of the vitellogenin ERE in front of the minimal thymidine kinase promoter driving the luciferase gene) was combined with the B-galactosidase expression plasmid pCH110 (Pharmacia) and carrier DNA (pTZ18U) in the following ratio: • 10uG of reporter DNA • 5uG of pCH110DNA • 5 uG of pTZ18U • 20 uG of DNA/1 mL of transfection solution
The DNA (20uG) was dissolved in 500 uL of 250 mM sterile CaCl2 and added dropwise to 500 uL of 2 X HeBS (0.28 M NaCl, 50 mM HEPES, 1.5 mM Na2HPO4, pH 7.05) and incubated at room temperature for 20 minutes. 20 uL of this mixture was added to each well of cells and remained on the cells for 16 h. […] Each treatment condition was performed on 8 wells (n=8) which were incubated for 24 h prior to the luciferase assay.
After 24h exposure to compounds, the media was removed and each well washed 2X with 125 uL of PBS lacking Mg^++ and Ca^++. After removing the PBS, 25 uL of Promega lysis buffer was added to each well and allowed to stand at room temperature for 15 min, followed by 15 min at -80°C and 15 min at 37°C. 20 uL of lysate was transferred to an opaque 96 well plate for luciferase activity evaluation and the remaining lysate (5 uL) was used for the B-galactosidase activity evaluation (normalize transfection). The luciferan substrate (Promega) was added in 100 uL aliquots to each well automatically by the luminometer and the light produced (relative light units) was read 10 seconds after addition.
To the remaining 5 uL of lysate 45 uL of PBS was added. Then 50 uL of Promega B-galactosidase 2X assay buffer was added, mixed well and incubated at 37°C for 1 hour. A plate containing a standard curve (0.1 to 1.5 milliunits in triplicate) was set up for each experimental run. The plates were analyzed on a Molecular Devices spectrophotometric plate reader at 410 nm. The optical densities for the unknown were converted to milliunits of activity by mathematical extrapolation from the standard curve.
The luciferase data was generated as relative light units (RLUs) accumulated during a 10 second measurement and automatically transferred to a JMP (SAS Inc) file where background RLUs were subtracted. The B-galactosidase values were automatically imported into the file and these values were divided into the RLUs to normalize the data. The mean and standard deviations were determined from a n=8 for each treatment.

| SMILES | IC50 (estrogen receptor) [nM] | Infection Luciferase Activity, 1 uM + 17β estradiol (human estrogen receptor) [%] | Infection Luciferase Activity, 1 uM (human estrogen receptor) [%] | binding to the ER receptor, comparison in words (estrogen receptor) |
| --- | --- | --- | --- | --- |
| COc1ccc2c(c1)Cc1c-2n(Cc2ccc(OCCN3CCCCC3)cc2)c2ccc(O)cc12 [Example 4, 2-Methoxy-5-[4-(2-piperidin-1-yl-ethoxy)-benzyl]-5,10-dihydro-indeno[1,2-b]indol-8ol] | 430 | 83 | -2 | – |
| COc1ccc2c(c1)CCc1c-2n(Cc2ccc(OCCN3CCCCC3)cc2)c2ccc(O)cc12 [Example 13, 3-Methoxy-11-[4-(2-piperidin-1-yl-ethoxy)-benzyl]-5,11-dihydro-6H-benzo[a]carbazol-8-ol] | 110 | 1 | -7 | bind better to the ER receptor than the indenoindole Example 4 |
| COc1ccc2c(c1)CCc1c-2n(Cc2ccc(OCCN3CCCCCC3)cc2)c2ccc(O)cc12 [Example 14] | 190 | 8 | 1 | bind better to the ER receptor than the indenoindole Example 4 |
